Source: the supplement of paper PMC10307832

Assays:
Experiment in all cases: relative viability (nuclei count vs DMSO), 5 days (fraction); higher = more cells survive
Elesclomol + Olaparib = compound: CN(NC(=O)CC(=O)NN(C)C(=S)c1ccccc1)C(=S)c1ccccc1 [Elesclomol] + O=C(c1cc(Cc2n[nH]c(=O)c3ccccc23)ccc1F)N1CCN(C(=O)C2CC2)CC1 [Olaparib] (partner 8 µM)
Outline: (§1)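 Cells from lung cancer lines were seeded into 1536-well plates and, one day later, dosed by pin tool. Treatments were either a single drug or a fixed dose of an anchor drug with five library-drug doses (not always all listed) in √10 steps. After 5 days, nuclei were stained in a one-step fixation (final 0.05% Triton X-100, 1% formaldehyde, 1 ug/ml Hoechst) and counted on 4× images, and relative viability is the treated-to-vehicle nuclei ratio, as the median of duplicate plates.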

Elesclomol + Lapatinib = compound: CN(NC(=O)CC(=O)NN(C)C(=S)c1ccccc1)C(=S)c1ccccc1 [Elesclomol] + CS(=O)(=O)CCNCc1ccc(-c2ccc3ncnc(Nc4ccc(OCc5cccc(F)c5)c(Cl)c4)c3c2)o1 [Lapatinib] (partner 2 µM)
Outline: as §1

Elesclomol + Phenformin = compound: CN(NC(=O)CC(=O)NN(C)C(=S)c1ccccc1)C(=S)c1ccccc1 [Elesclomol] + N=C(N)NC(=N)NCCc1ccccc1 [Phenformin] (partner 250 µM)
Outline: as §1

Elesclomol + Pemetrexed = compound: CN(NC(=O)CC(=O)NN(C)C(=S)c1ccccc1)C(=S)c1ccccc1 [Elesclomol] + Nc1nc2[nH]cc(CCc3ccc(C(=O)N[C@@H](CCC(=O)O)C(=O)O)cc3)c2c(=O)[nH]1 [Pemetrexed] (partner 0.2 µM)
Outline: as §1

Elesclomol + Palbociclib = compound: CN(NC(=O)CC(=O)NN(C)C(=S)c1ccccc1)C(=S)c1ccccc1 [Elesclomol] + CC(=O)c1c(C)c2cnc(Nc3ccc(N4CCNCC4)cn3)nc2n(C2CCCC2)c1=O [Palbociclib] (partner 0.5 µM)
Outline: as §1

Cell Line | relative viability (Elesclomol + Olaparib; first compound 0.003162 µM) | relative viability (Elesclomol + Olaparib; first compound 0.01 µM) | relative viability (Elesclomol + Olaparib; first compound 0.03162 µM) | relative viability (Elesclomol + Olaparib; first compound 0.1 µM) | relative viability (Elesclomol + Lapatinib; first compound 0.003162 µM) | relative viability (Elesclomol + Lapatinib; first compound 0.01 µM) | relative viability (Elesclomol + Lapatinib; first compound 0.03162 µM) | relative viability (Elesclomol + Lapatinib; first compound 0.1 µM) | relative viability (Elesclomol + Phenformin; first compound 0.003162 µM) | relative viability (Elesclomol + Phenformin; first compound 0.01 µM) | relative viability (Elesclomol + Phenformin; first compound 0.03162 µM) | relative viability (Elesclomol + Phenformin; first compound 0.1 µM) | relative viability (Elesclomol + Pemetrexed; first compound 0.003162 µM) | relative viability (Elesclomol + Pemetrexed; first compound 0.01 µM) | relative viability (Elesclomol + Pemetrexed; first compound 0.03162 µM) | relative viability (Elesclomol + Pemetrexed; first compound 0.1 µM) | relative viability (Elesclomol + Palbociclib; first compound 0.003162 µM) | relative viability (Elesclomol + Palbociclib; first compound 0.01 µM) | relative viability (Elesclomol + Palbociclib; first compound 0.03162 µM) | relative viability (Elesclomol + Palbociclib; first compound 0.1 µM)
201T | 0.843 | 0.843 | 0.844 | 0.705 | 1.04 | 1.08 | 1.07 | 0.985 | 0.464 | 0.428 | 0.435 | 0.385 | 0.361 | 0.369 | 0.309 | 0.394 | 0.349 | 0.358 | 0.354 | 0.372
A549 | 0.289 | 0.22 | 0.189 | 0.0697 | 0.74 | 0.174 | 0.29 | 0.058 | 0.0993 | 0.0488 | 0.0406 | 0.0078 |  |  |  |  |  |  |  | 
A-427 | 0.52 | 0.424 | 0.232 | 0.164 | 0.933 | 1.02 | 1.05 | 0.52 | 0.342 | 0.216 | 0.319 | 0.104 | 0.937 | 0.707 | 0.201 | 0.186 | 0.498 | 0.455 | 0.211 | 0.178
ABC-1 | 0.23 | 0.428 | 0.248 | 0.342 | 0.935 | 0.477 | 0.466 | 0.42 | 0.239 | 0.22 | 0.224 | 0.17 |  |  |  |  | 0.327 | 0.265 | 0.288 | 0.258
BEN | 0.828 | 0.68 | 0.656 | 0.362 | 0.577 | 0.335 | 0.247 | 0.197 | 0.264 | 0.233 | 0.259 | 0.246 | 0.888 | 0.68 | 0.408 | 0.319 | 0.46 | 0.388 | 0.39 | 0.304
CAL-12T | 0.64 | 0.321 | 0.117 | 0.0718 | 0.529 | 0.484 | 0.103 | 0.0805 | 0.456 | 0.159 | 0.153 | 0.0571 | 1.03 | 0.576 | 0.119 | 0.0739 | 0.435 | 0.118 | 0.0519 | 0.0654
COR-L23 | 0.314 | 0.254 | 0.143 | 0.0895 | 0.885 | 0.484 | 0.434 | 0.178 | 0.367 | 0.187 | 0.163 | 0.053 | 0.212 | 0.206 | 0.19 | 0.155 | 0.276 | 0.17 | 0.153 | 0.115
COR-L 105 | 0.713 | 0.575 | 0.365 | 0.275 | 0.341 | 0.291 | 0.283 | 0.246 | 0.417 | 0.315 | 0.289 | 0.168 | 1.13 | 1.17 | 0.392 | 0.27 | 0.397 | 0.358 | 0.317 | 0.291
ChaGo-K-1 | 0.423 | 0.396 | 0.232 | 0.125 |  |  |  |  | 0.503 | 0.393 | 0.275 | 0.174 | 0.268 | 0.255 | 0.204 | 0.147 | 0.875 | 0.882 | 0.568 | 0.154
EKVX | 0.713 | 0.364 | 0.193 | 0.106 | 0.204 | 0.204 | 0.16 | 0.141 | 0.219 | 0.225 | 0.201 | 0.172 | 0.366 | 0.33 | 0.151 | 0.131 | 0.334 | 0.155 | 0.143 | 0.105
EMC-BAC-2 | 0.445 | 0.345 | 0.381 | 0.288 | 0.841 | 0.797 | 0.757 | 0.541 | 0.552 | 0.372 | 0.414 | 0.266 | 0.486 | 0.399 | 0.525 | 0.426 | 0.514 | 0.369 | 0.455 | 0.352
EPLC-272H | 0.592 | 0.157 | 0.132 | 0.178 | 0.873 |  | 1.04 | 0.119 | 0.293 |  | 0.291 | 0.172 | 0.285 | 0.118 | 0.154 | 0.196 | 0.352 | 0.117 | 0.118 | 0.112
H3255 | 0.488 | 0.456 | 0.482 | 0.316 | 0.246 | 0.265 | 0.207 | 0.232 | 0.312 | 0.338 | 0.366 | 0.313 | 0.627 | 0.531 | 0.489 | 0.474 | 0.331 | 0.309 | 0.285 | 0.254
HARA | 0.774 | 0.524 | 0.417 | 0.36 | 0.679 | 0.715 | 0.756 | 0.186 | 0.506 | 0.413 | 0.475 | 0.169 | 0.211 | 0.293 | 0.183 | 0.141 | 0.239 | 0.278 | 0.284 | 0.233
HCC-15 | 0.646 | 0.631 | 0.536 | 0.217 | 0.869 | 0.684 | 0.574 | 0.284 | 0.452 | 0.438 | 0.335 | 0.231 | 0.237 | 0.23 | 0.24 | 0.187 | 0.714 | 0.629 | 0.518 | 0.12
HCC-44 | 0.965 | 0.914 | 0.976 | 1 | 0.95 | 0.941 | 1.03 | 0.727 | 0.375 | 0.148 | 0.091 | 0.0922 | 0.603 | 0.607 | 0.685 | 0.639 | 0.975 | 0.895 | 0.939 | 0.952
HCC-78 | 0.735 | 0.574 | 0.641 | 0.945 | 0.704 | 0.65 | 0.932 | 0.798 | 0.631 | 0.758 | 0.539 | 0.615 | 0.901 | 0.856 | 0.911 | 0.956 | 0.493 | 0.377 | 0.489 | 0.466
